Article PMC6463794, “Inhibition of CDC25B With WG-391D Impedes the Tumorigenesis of Ovarian Cancer” (Frontiers in Oncology, 2019)

Target: T1, CDC25B (Homo sapiens, UniProt P30305)
T1 construct: recombinant CDC25B protein
T1 sequence (P30305 1-580): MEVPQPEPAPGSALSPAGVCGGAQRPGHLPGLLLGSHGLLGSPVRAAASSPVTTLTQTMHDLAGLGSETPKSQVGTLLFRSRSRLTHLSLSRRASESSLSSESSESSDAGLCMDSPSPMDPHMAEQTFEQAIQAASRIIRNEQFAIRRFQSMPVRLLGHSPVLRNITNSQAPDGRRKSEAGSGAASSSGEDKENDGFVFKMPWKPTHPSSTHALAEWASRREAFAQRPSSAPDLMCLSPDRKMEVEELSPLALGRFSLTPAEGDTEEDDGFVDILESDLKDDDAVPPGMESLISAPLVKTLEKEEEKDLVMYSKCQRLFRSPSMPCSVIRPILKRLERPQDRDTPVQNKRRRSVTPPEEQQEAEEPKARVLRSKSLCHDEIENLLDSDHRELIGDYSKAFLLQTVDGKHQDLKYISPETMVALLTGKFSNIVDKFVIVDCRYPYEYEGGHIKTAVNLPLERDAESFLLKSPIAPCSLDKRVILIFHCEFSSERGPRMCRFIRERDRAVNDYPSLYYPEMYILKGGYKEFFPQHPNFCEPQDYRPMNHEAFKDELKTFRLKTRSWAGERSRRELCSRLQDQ
Assay: fluorometric phosphatase assay (3-O-methylfluorescein phosphate) with recombinant CDC25B; positive-control inhibitor, single concentration
Type: biochemical
Protocol: fluorometric phosphatase assay (3-O-methylfluorescein phosphate) with recombinant CDC25B; positive-control inhibitor, single concentration on CDC25B | CDC25B dephosphorylation catalytic activity was determined by in vitro enzyme assay. ... PC, NSC663284 served as the positive control.

O=C1C(Cl)=C(NCCN2CCOCC2)C(=O)c2ncccc21 [PC, NSC663284]
fluorometric phosphatase assay (3-O-methylfluorescein phosphate) with recombinan: CDC25B dephosphorylation catalytic activity was determined by in vitro enzyme assay. ... PC, NSC663284 served as the positive control.
